In US20100063065A1 (Inpharmatica Limited, priority 2005, published 2010) one finds EC50 data, which are given here for 31 compounds.

Counter-ions that a name gives are not always drawn. Some results are limits rather than exact numbers.

The first experiment deals with T1, PPARδ (Homo sapiens, UniProt Q03181).
T1 construct: fused to amino acids 147-441 of PPARδ downstream of CMV promoter; expressed in transfected cells; host or cells: HEK293 cells, transiently transfected with pFACMV-PPARδ using Fugene
T1 sequence (Q03181 147-441): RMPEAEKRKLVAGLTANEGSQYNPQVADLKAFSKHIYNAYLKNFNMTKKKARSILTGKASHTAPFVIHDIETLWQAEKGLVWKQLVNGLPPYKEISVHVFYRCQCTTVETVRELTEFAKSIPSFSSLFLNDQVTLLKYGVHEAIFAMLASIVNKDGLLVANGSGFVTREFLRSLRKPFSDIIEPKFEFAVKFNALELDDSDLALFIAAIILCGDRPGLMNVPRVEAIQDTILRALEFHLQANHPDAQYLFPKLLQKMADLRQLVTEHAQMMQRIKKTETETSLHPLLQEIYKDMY
As to the kind of experiment: Transactivation assay (PPARδ GAL4 assay) in transiently transfected HEK293 cells. The class given is cell-based. Particulars: luciferase reporter, Table 1. In outline: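 HEK293 cells transiently co-transfected with GAL4 DBD (aa 1-147)–PPARδ (aa 147-441) fusion and 5×GAL4-luciferase reporter, then exposed 24 h to compound (final 0-30 μM) in OptiMEM at 37° C. Luminescence read; activity as percent of GW501516 control, EC50 from sigmoidal dose-response fit.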
For `O=C(O)CSCC(=O)Nc1sc(C2CC2)cc1C(=O)c1ccc(F)cc1` [Example 64, {[5-Cyclopropyl-3-(4-fluoro-benzoyl)-thiophen-2-ylcarbamoyl]-methylsulfanyl}-acetic acid], the EC50 (commonly the concentration needed to bring the measured effect to its halfway point) lay in the range of 1000 to 30000 nM.

In the case of `CCc1cc(C(=O)c2cccc(OC)c2)c(NC(=O)CSCC(=O)O)s1` [Example 48, {[5-Ethyl-3-(3-methoxybenzoyl)-thiophen-2-ylcarbamoyl]-methylsulfanyl}-acetic acid], the EC50 is 1000 to 30000 nM.

Regarding `CCc1cc(C(=O)c2ccc(OC)cc2)c(NC(=O)CCCCC(=O)O)s1` [Example 69, 5-[5-Ethyl-3-(4-methoxy-benzoyl)-thiophen-2-ylcarbamoyl]-pentanoic acid], the EC50 was in the range of 1000 to 30000 nM.

Compound `CCc1cc(C(=O)c2ccc(OC(F)(F)F)cc2)c(NC(=O)CNCC(=O)O)s1` [Example 81, ({[5-Ethyl-3-(4-trifluoromethoxy-benzoyl)-thiophen-2-ylcarbamoyl]-methyl}-amino)-acetic acid] displayed an EC50 of 100 to 1000 nM.

Compound `CCc1cc(C(=O)c2ccc(OC(F)(F)F)cc2)c(NC(=O)CNC(C)(C)C(=O)O)s1` [Example 76, 2-({[5-Ethyl-3-(4-trifluoromethoxy-benzoyl)-thiophen-2-ylcarbamoyl]-methyl}-amino)-2-methyl-propionic acid] returned a concentration for a half-maximal effect (EC50) of less than 100 nM.

`CCc1cc(C(=O)c2ccc(OC)cc2)c(NC(=O)CSc2ccc(OCC(=O)O)cc2)s1` [Example 89, (4-{[5-Ethyl-3-(4-methoxy-benzoyl)-thiophen-2-ylcarbamoyl]-methylsulfanyl}-phenoxy)-acetic acid] gave an EC50 of 1000 to 30000 nM.

The compound `CCc1cc(C(=O)c2ccc(OC(F)(F)F)cc2)c(NC(=O)CSc2ccc(CCC(=O)O)cc2)s1` [Example 96, 3-(4-{[5-Ethyl-3-(4-trifluoromethoxy-benzoyl)-thiophen-2-ylcarbamoyl]-methylsulfanyl}-phenyl)-propionic acid] came in with a half-maximal effective concentration (EC50) of 100 to 1000 nM.

`CCc1cc(C(=O)c2ccc(OC)cc2)c(NC(=O)CSC(C)(C)C(=O)O)s1` [Example 5, 2-{[5-Ethyl-3-(4-methoxy-benzoyl)-thiophen-2-ylcarbamoyl]-methylsulfanyl}-2-methyl-propionic acid] registered an EC50 of 100 to 1000 nM.

In turn, `CCc1cc(C(=O)c2ccc(Oc3ccccc3)cc2)c(NC(=O)CSCC(=O)O)s1` [Example 12, {[5-Ethyl-3-(4-phenoxy-benzoyl)-thiophen-2-ylcarbamoyl]-methylsulfanyl}-acetic acid] displayed a 50% effective concentration (EC50) of 100 to 1000 nM.

On to `CCc1cc(C(=O)c2ccc(F)cc2)c(NC(=O)CC(C)(C)CC(=O)O)s1` [Example 20, 4-[5-Ethyl-3-(4-fluoro-benzoyl)-thiophen-2-ylcarbamoyl]-3,3-dimethyl-butyric acid], for which the EC50 fell in the range of 1000 to 30000 nM.

Compound `CCc1cc(C(=O)c2cccc(-c3ccc(F)cc3)c2)c(NC(=O)CNC(C)(C)C(=O)O)s1` [Example 85, 2-({[5-Ethyl-3-(4′-fluoro-biphenyl-3-carbonyl)-thiophen-2-ylcarbamoyl]-methyl}-amino)-2-methyl-propionic acid] yielded a concentration for a half-maximal effect (EC50) of 100 to 1000 nM.

`CCc1cc(C(=O)c2ccc(OC)cc2)c(NC(=O)CN(C)CC(=O)O)s1` [Example 73, ({[5-Ethyl-3-(4-methoxy-benzoyl)-thiophen-2-ylcarbamoyl]-methyl}-methyl-amino)-acetic acid hydrochloride] yielded an EC50 of 1000 to 30000 nM.

On to `CCc1cc(C(=O)c2ccc(Cl)c(Cl)c2)c(NC(=O)CSCC(=O)O)s1` [Example 28, {[3-(3,4-Dichloro-benzoyl)-5-ethyl-thiophen-2-ylcarbamoyl]-methylsulfanyl}-acetic acid], for which the EC50 is less than 100 nM.

As for `CCc1cc(C(=O)c2ccc(OC(C)C)cc2)c(NC(=O)CSCC(=O)O)s1` [Example 33, {[5-Ethyl-3-(4-isopropoxy-benzoyl)-thiophen-2-ylcarbamoyl]-methylsulfanyl}-acetic acid], the EC50 was 100 to 1000 nM.

Compound `CCc1cc(C(=O)c2ccc(OC)nc2)c(NC(=O)CSCC(=O)O)s1` [Example 55, {[5-Ethyl-3-(6-methoxy-pyridine-3-carbonyl)-thiophen-2-ylcarbamoyl]-methylsulfanyl}-acetic acid] returned a 50% effective concentration (EC50) of 1000 to 30000 nM.

In turn, `CCc1cc(C(=O)c2ccc(OC)cc2)c(NC(=O)CSc2ccc(OCC(=O)O)c(C)c2)s1` [Example 91, (4-{[5-Ethyl-3-(4-methoxy-benzoyl)-thiophen-2-ylcarbamoyl]-methylsulfanyl}-2-methyl-phenoxy)-acetic acid] gave a half-maximal effective concentration (EC50) of 1000 to 30000 nM.

As for `COc1ccc(C(=O)c2ccsc2NC(=O)CSCC(=O)O)cc1` [Example 68, {[3-(4-Methoxy-benzoyl)-thiophen-2-ylcarbamoyl]-methylsulfanyl}-acetic acid], the EC50 is 1000 to 30000 nM.

The same experiment, now with this note: luciferase reporter, Table 2.
For `CCc1cc(C(=O)c2ccc(OC(F)(F)F)cc2)c(NC(=O)CN2[C@@H](C(=O)O)CC[C@@H]2C(C)C)s1` [Example 185, (2R,5R)-1-{[5-Ethyl-3-(4-trifluoromethoxy-benzoyl)-thiophen-2-ylcarbamoyl]-methyl}-5-isopropyl-pyrrolidine-2-carboxylic acid], the EC50 was less than 100 nM.

As for `CCc1cc(C(=O)c2cc(C)n(C)n2)c(NC(=O)CSCC(=O)O)s1` [Example 144, {[3-(1,5-Dimethyl-1H-pyrazole-3-carbonyl)-5-ethyl-thiophen-2-ylcarbamoyl]-methylsulfanyl}-acetic acid], the EC50 was in the range of 1000 to 30000 nM.

In turn, `CCc1cc(C(=O)c2ccc(Cl)cc2)c(NC(=O)CN2[C@@H](C(=O)O)CC[C@@H]2c2ccccc2)s1` [Example 187, (2R,5R)-1-{[3-(4-Chloro-benzoyl)-5-ethyl-thiophen-2-ylcarbamoyl]-methyl}-5-phenyl-pyrrolidine-2-carboxylic acid hydrochloride] returned an EC50 of 100 to 1000 nM.

The compound `CCc1cc(C(=O)c2ccc(Cl)cc2)c(NC(=O)CSc2ccc(OCC(=O)O)cc2)s1` [Example 136, (4-{[3-(4-Chloro-benzoyl)-5-ethyl-thiophen-2-ylcarbamoyl]-methylsulfanyl}-phenoxy)-acetic acid] returned a concentration giving a half-maximal response (EC50) of 1000 to 30000 nM.

The compound `CCc1cc(C(=O)c2ccc(OC(F)(F)F)cc2)c(NC(=O)C(C)(C)N2CCC[C@@H]2C(=O)O)s1` [Example 119, (R)-1-{1-[5-Ethyl-3-(4-trifluoromethoxy-benzoyl)-thiophen-2-ylcarbamoyl]-1-methyl-ethyl}-pyrrolidine-2-carboxylic acid] showed an EC50 of 100 to 1000 nM.

`CCc1cc(C(=O)c2ccc(OC(F)(F)F)cc2)c(NC(=O)C(C)(C)SC(C)C(=O)O)s1` (stereo not shown) [Example 108, 2-{1-[5-Ethyl-3-(4-trifluoromethoxy-benzoyl)-thiophen-2-ylcarbamoyl]-1-methyl-ethylsulfanyl}-propionic acid] returned an EC50 of less than 100 nM.

For `CC(C)c1cc(C(=O)c2ccc(OC(F)(F)F)cc2)c(NC(=O)CSCC(=O)O)s1` [Example 133, {[5-Isopropyl-3-(4-trifluoromethoxy-benzoyl)-thiophen-2-ylcarbamoyl]-methylsulfanyl}-acetic acid], the EC50 is less than 100 nM.

In turn, `Cc1cc(C(=O)c2ccc(OC(F)(F)F)cc2)c(NC(=O)CSc2ccc(OCC(=O)O)cc2)s1` [Example 141, (4-{[5-Methyl-3-(4-trifluoromethoxy-benzoyl)-thiophen-2-ylcarbamoyl]-methylsulfanyl}-phenoxy)-acetic acid] came in with a concentration giving a half-maximal response (EC50) of less than 100 nM.

In turn, `CCc1cc(C(=O)c2ccc(OC(F)(F)F)cc2)c(NC(=O)CN2[C@@H](C(=O)O)CC[C@@H]2c2ccc(F)cc2)s1` [Example 181, (2R,5R)-1-{[5-Ethyl-3-(4-trifluoromethoxy-benzoyl)-thiophen-2-ylcarbamoyl]-methyl}-5-(4-fluoro-phenyl)-pyrrolidine-2-carboxylic acid] yielded a concentration giving a half-maximal response (EC50) of less than 100 nM.

Compound `CCc1cc(C(=O)c2ccc(OC(F)(F)F)cc2)c(NC(=O)C2CCCN(CC(=O)O)C2)s1` (stereo not shown) [Example 176, {3-[5-Ethyl-3-(4-trifluoromethoxy-benzoyl)-thiophen-2-ylcarbamoyl]-piperidin-1-yl}-acetic acid] showed a concentration for a half-maximal effect (EC50) of 1000 to 30000 nM.

For the compound `CCc1cc(C(=O)c2ccc(OC(F)(F)F)cc2)c(NC(=O)CN[C@@H](CC)C(=O)O)s1` [Example 191, (S)-2-({[5-Ethyl-3-(4-trifluoromethoxy-benzoyl)-thiophen-2-ylcarbamoyl]-methyl}-amino)-butyric acid], the EC50 was 100 to 1000 nM.

For `CCc1cc(C(=O)c2ccc(OC(F)(F)F)cc2)c(NC(=O)CN2[C@@H](C(=O)O)CC[C@@H]2C)s1` (relative stereo) [Example 179, (2R*,5S*)-1-{[5-Ethyl-3-(4-trifluoromethoxy-benzoyl)-thiophen-2-ylcarbamoyl]-methyl}-5-methyl-pyrrolidine-2-carboxylic acid], the EC50 was less than 100 nM.

`CCc1cc(C(=O)c2ccc(OC(F)(F)F)cc2)c(NC(=O)CN2CCCC2C(=O)O)s1` (stereo not shown) [Example 189, 1-{[5-Ethyl-3-(4-trifluoromethoxy-benzoyl)-thiophen-2-ylcarbamoyl]-methyl}-pyrrolidine-2-carboxylic acid] yielded a concentration giving a half-maximal response (EC50) of less than 100 nM.

For the compound `CCc1cc(C(=O)c2ccc(-c3ccccn3)cc2)c(NC(=O)CSCC(=O)O)s1` [Example 145, {[5-Ethyl-3-(4-pyridin-2-yl-benzoyl)-thiophen-2-ylcarbamoyl]-methylsulfanyl}-acetic acid], the EC50 lay within 100 to 1000 nM.
